According to US20090123979A1, “Methods of reducing the inhibitory effect of a tannin on the enzymatic hydrolysis of cellulosic material” (Novozymes, Inc., priority 2007, published 2009):

Tests used:
[1] = system: T1, Cellulolytic Enzyme Composition #2; assay: PCS hydrolysis by Cellulolytic Enzyme Composition #2 with added compounds; format: biochemical, Trichoderma reesei; conditions: 1 mM each compound; 43.4 g PCS and 0.25 g enzyme per liter, pH 5.0, 50° C.
T1 construct: Dixon plot linear regression intercept (1/Rate); other: PCS; rate from hydrolysis difference (%) at 0 and 5 hours; rate from hydrolysis difference (%); Ki (x-intercept of Dixon plot); other: PCS hydrolysis, Cellulolytic Enzyme Composition #2; OPC flavonol-equivalent; Ki expressed as galloyl constituents; oth; fused on or other part: In one component the Humicola insolens endoglucanase V (CEL45A) core is fused in front of the A. oryzae beta-glucosidase
Method: (§1) Corn stover was pretreated at the U.S. Department of Energy National Renewable Energy Laboratory (NREL), […], Colo., USA, using dilute sulfuric acid. The following conditions were used for the pretreatment: 1.4 wt % sulfuric acid at 195° C. for 4.5 minutes. According to limit digestion with excess cellulase enzymes, the water-insoluble solids in the pretreated corn stover (PCS) contained 59.5% cellulose. Prior to use, the PCS was washed with a large volume of deionized water until soluble acid and sugars were removed. The dry weight of the water-washed PCS was 19.16%.
(§2) The effect of a mixture of tannic acid, ellagic acid, epicatechin, and six lignin constituent compounds (4-hydroxyl-2-methylbenzoic acid, vanillin, coniferyl alcohol, coniferyl aldehyde, ferulic acid, and syringaldehyde) was determined on the hydrolysis of PCS by Cellulolytic Enzyme Composition #1 or Cellulolytic Enzyme Composition #2. […] Cellulolytic Enzyme Composition #1 or Cellulolytic Enzyme Composition #2 was added at 0.25 g per liter. Reactions without the addition of the compounds served as controls. The capped tubes were incubated at 50° C. in an INNOVA® 4080 incubator shaker (New Brunswick Scientific Co., Inc., Edison, N.J., USA) at 150 rpm.
(§3) Aliquots of the suspensions, sampled over time, were filtered by centrifugation using a 0.45 μm MULTISCREEN® HV membrane (Millipore, Billerica, Mass., USA) at 2000 rpm for 15 minutes using a SORVALL® RT7 centrifuge (Thermo Fisher Scientific, Waltham, Mass., USA). When not used immediately, the filtered aliquots were frozen at −20° C. Sugar concentrations of the samples diluted in 0.005 M H2SO4 were measured after elution by 0.005 M H2SO4 at a flow rate of 0.4 ml/minute from a 4.6×250 mm AMINEX® HPX-87H column (Bio-Rad, Hercules, Calif., USA) at 65° C. with quantitation by integration of glucose and cellobiose using refractive index detection (CHEMSTATION®, AGILENT® 1100 HPLC, Agilent Technologies, Santa Clara, Calif., USA) calibrated with standards of glucose and cellobiose. The resultant equivalents were used to calculate the percentage of cellulose conversion for each reaction.
(§4) The degree of cellulose conversion to glucose plus cellobiose sugars (conversion, %) was calculated using the following equation:
(§5) Conversion(%)=(glucose+cellobiose×1.053)(mg/ml)×100×162/cellulose(mg/ml)×180)=(glucose+cellobiose×1.053)(mg/ml)×100/(cellulose(mg/ml)×1.111)
(§6) In this equation the factor 1.111 reflects the weight gain in converting cellulose to glucose, and the factor 1.053 reflects the weight gain in converting cellobiose to glucose. Cellulose in PCS was determined by a limit digest of PCS to release glucose and cellobiose.
(§7) Example 30 was repeated except that each compound was tested separately. […] Reactions without the addition of each compound served as controls.
(§8) The effect of OPC or flavonol on the hydrolysis of PCS by Cellulolytic Enzyme Composition #1 or Cellulolytic Enzyme Composition #2 was determined according to the procedure described in Example 30. OPC and flavonol were present at a concentration of 1 mM. Reactions without the addition of the compounds served as controls.
(§9) The effective inhibitory concentration range for tannic acid and OPC was also determined by the “mini-scale” hydrolysis described in Example 30 with Cellulolytic Enzyme Composition #2. The concentration of tannic acid ranged from 0.1 mM to 1 mM, while the concentration of OPC ranged from 0.1 mM to 10 mM. Reactions without the addition of the tannic compounds served as controls.
(§10) However, prior to the addition of Cellulolytic Enzyme Composition #2, the mixture of PCS or OPC and tannic acid was treated with Aspergillus oryzae tannase (Novozymes A/S, Bagsværd, Denmark) at 10% of the final protein level for 30 minutes. Reactions without addition of the tannic acid, OPC, or tannase served as controls.

[2] = system: T2, Cellulolytic Enzyme Composition #1; assay: PCS hydrolysis by Cellulolytic Enzyme Composition #1 with added compounds; format: biochemical, Trichoderma reesei; conditions: for effect on hydrolysis of PCS by Cellulolytic Enzyme Composition #1: 1 mM each compound, 43.4 g PCS and 0.25 g enzyme per liter, pH 5.0, 50° C.; for loss in initial rate of PCS hydrolysis / loss in the extent of PCS hydrolysis at day 4: 50 g PCS, 0.25 g enzyme per liter, methyl gallate and ellagic acid 10 mM, tannic acid 1 mM
T2 construct: other: PASC hydrolysis; mean ± SD; 0.01 g enzyme; Dixon plot linear regression intercept (1/Rate); other: AVICEL; rate from hydrolysis difference (%) at 0 and 6 hours; rate from hydrolysis difference; fused on or other part: The A. oryzae beta-glucosidase is the mature chain secreted behind the Humicola insolens endoglucanase V signal peptide, which is cleaved off
Method: as §1, §2, §3, §4, §5, §6, §7, §8
Methyl gallate and ellagic acid were compared at 10 mM to 1 mM tannic acid in the hydrolysis of PCS by Cellulolytic Enzyme Composition #1.

[3] = system: Cellulolytic Enzyme Composition #2; assay: PCS hydrolysis by Cellulolytic Enzyme Composition #2 with added compounds; format: biochemical, Trichoderma reesei; conditions: tannase alone, in the absence of tannic acid or OPC
Method: as §1, §2, §3, §4, §5, §6, §7, §8, §9, §10

[4] = Tannase reduction of tannic acid inhibition of PCS hydrolysis by Cellulolytic Enzyme Composition #2; format: biochemical; conditions: 1 mM tannic acid; 43 g PCS per liter; tannase at 10% of final protein level for 30 minutes
Method: (§11) Tannase was evaluated for its ability to reduce the inhibitory effect of tannic acid on OPC on PCS hydrolysis by Cellulolytic Enzyme Composition #2.
as §10

[5] = Tannase reduction of OPC inhibition of PCS hydrolysis by Cellulolytic Enzyme Composition #2; format: biochemical; conditions: 10 mM OPC; 43 g PCS per liter; tannase at 10% of final protein level for 30 minutes
Method: as §11, §10

[6] = Tannase reduction of tannic acid inhibition of PCS hydrolysis by Cellulolytic Enzyme Composition #1; format: biochemical; conditions: 1 mM tannic acid
Method: To reduce the inhibition, tannase was added at 12.5, 25, and 50 mg per liter (or 0.21, 0.42, and 0.85 μM).

Molecule: O=c1c(O)c(-c2ccccc2)oc2ccccc12 [flavonol]
- effect on hydrolysis of PCS by Cellulolytic Enzyme Composition #2 [1]: not inhibitory
- effect on hydrolysis of PCS by Cellulolytic Enzyme Composition #1 [2]: not its constituent flavonol, was inhibitory

Molecule: O=c1oc2c(O)c(O)cc3c(=O)oc4c(O)c(O)cc1c4c23 [ellagic acid]
- effect on hydrolysis of PCS by Cellulolytic Enzyme Composition #1 [2]: but not its constituent ellagic acid (FIG. 17C), significantly inhibited
- loss in initial rate of PCS hydrolysis [2]: ~30%
- loss in the extent of PCS hydrolysis at day 4 [2]: ~40%

Molecule: COC(=O)c1cc(O)c(O)c(O)c1 [methyl gallate]
- loss in initial rate of PCS hydrolysis [2]: ~10%
- loss in the extent of PCS hydrolysis at day 4 [2]: ~10%

B1: Aspergillus oryzae tannase: Aspergillus oryzae tannase (Novozymes A/S, Bagsværd, Denmark) (protein, listed as Aspergillus oryzae)
chain: MPSLRRLLPFLAAGSAALASQDTFQGKCTGFADKINLPNVRVNFVNYVPGGTNLSLPDNPTSCGTTSQVVSEDVCRIAMAVATSNSSEITLEAWLPQNYTGRFLSTGNGGLSGCIQYYDLAYTSGLGFATVGANSGHNGTSGEPFYHHPEVLEDFVHRSVHTGVVVGKQLTKLFYEEGFKKSYYLGCSTGGRQGFKSVQKYPNDFDGVVAGAPAFNMINLMSWSAHFYSITGPVGSDTYLSPDLWNITHKEILRQCDGIDGAEDGIIEDPSLCSPVLEAIICKPGQNTTECLTGKQAHTVREIFSPLYGVNGTLLYPRMQPGSEVMASSIMYNGQPFQYSADWYRYVVYENPNWDATKFSVRDAAVALKQNPFNLQTWDADISSFRKAGGKVLTYHGLMDQLISSENSKLYYARVAETMNVPPEELDEFYRFFQISGMAHCSGGDGAYGIGNQLVTYNDANPENNVLMAMVQWVEKGIAPETIRGAKFTNGTGSAVEYTRKHCRYPRRNVYKGPGNYTDENAWQCV
- increase in hydrolysis extent of PCS by Cellulolytic Enzyme Composition #2 [3]: approximately 2%
- effect of tannase pretreatment on the inhibitory effect of tannic acid on Cellulolytic Enzyme Composition #2 [4]: significantly reduced
- effect of tannase pretreatment on the inhibitory effect of OPC on Cellulolytic Enzyme Composition #2 [5]: significantly reduced
- reduction of tannic acid inhibition ([6]; tannase at approximately 12 mg per liter): approximately 50%
- reduction of tannic acid inhibition ([6]; tannase at approximately 25 mg per liter): ~100%
